# Values quoted from earlier work as cited in PubChem BioAssay AID1259409 (Chemical Carcinogenesis Research Information System (CCRIS), 2018).
# Where “and” joins values, the source holds several entries; their conditions need not be identical. Identical values can stand only once.
# System: rodent chemically induced tumor inhibition, incidence and multiplicity
# Assay: CCRIS tumor inhibitor studies
smiles,measurement,setting,value
CC(=O)OC12C[C@@H](C)[C@@]3(O)[C@@H](C=C(CO)C[C@]4(O)C(=O)C(C)=C[C@@H]34)C1C2(C)C (some centres undefined),"tumour outcome (control, treated, inhibition, significance)","Carcinogen: 7,12-DIMETHYLBENZ[A]ANTHRACENE, 57-97-6, Dose [Inhibitor]: 0, 256 NMOL 15 D POST INITIATION DOSE FOLLOWED BY 2.56 NMOL 2/WK DURING WK 3-22 APPLIED 15 MIN PRIOR TO EACH PROMOTION D, Route [Inhibitor]: DERMAL, Species: MOUSE, Strain/Sex: CD-1/FEMALE, Target Tissue: Type of Lesion: SKIN: PAPILLOMA, Dose [Carcinogen]: 20 NMOL IN 200 µL ACETONE ONCE","100%, 95%, 5%, not calculated"
same,"tumour outcome (control, treated, inhibition, significance)","Carcinogen: 7,12-DIMETHYLBENZ[A]ANTHRACENE, 57-97-6, Dose [Inhibitor]: 0, 256 NMOL 15 D POST INITIATION DOSE FOLLOWED BY 2.56 UMOL 2/WK DURING WK 3-22 APPLIED 15 MIN PRIOR TO EACH PROMOTION D, Route [Inhibitor]: DERMAL, Species: MOUSE, Strain/Sex: CD-1/FEMALE, Target Tissue: Type of Lesion: SKIN: PAPILLOMA, Dose [Carcinogen]: 20 NMOL IN 200 µL ACETONE ONCE","94%, 40%, 57%, not calculated"
same,"tumour outcome (control, treated, inhibition, significance)","Carcinogen: 7,12-DIMETHYLBENZ[A]ANTHRACENE, 57-97-6, Dose [Inhibitor]: 0, 256 NMOL 15 D POST INITIATION DOSE FOLLOWED BY 25.6 NMOL 2/WK DURING WK 3-22 APPLIED 15 MIN PRIOR TO EACH PROMOTION D, Route [Inhibitor]: DERMAL, Species: MOUSE, Strain/Sex: CD-1/FEMALE, Target Tissue: Type of Lesion: SKIN: PAPILLOMA, Dose [Carcinogen]: 20 NMOL IN 200 µL ACETONE ONCE","94%, 83%, 12%, not calculated and 100%, 80%, 20%, not calculated"
same,"tumour outcome (control, treated, inhibition, significance)","Carcinogen: 7,12-DIMETHYLBENZ[A]ANTHRACENE, 57-97-6, Dose [Inhibitor]: 0, 256 NMOL 15 D POST INITIATION DOSE FOLLOWED BY 25.6 PMOL 2/WK DURING WK 3-22 APPLIED 15 MIN PRIOR TO EACH PROMOTION D, Route [Inhibitor]: DERMAL, Species: MOUSE, Strain/Sex: CD-1/FEMALE, Target Tissue: Type of Lesion: SKIN: PAPILLOMA, Dose [Carcinogen]: 20 NMOL IN 200 µL ACETONE ONCE","100%, 97%, 3%, not calculated"
same,"tumour outcome (control, treated, inhibition, significance)","Carcinogen: 7,12-DIMETHYLBENZ[A]ANTHRACENE, 57-97-6, Dose [Inhibitor]: 0, 256 NMOL 15 D POST INITIATION DOSE FOLLOWED BY 256 NMOL 2/WK DURING WK 3-22 APPLIED 15 MIN PRIOR TO EACH PROMOTION DO, Route [Inhibitor]: DERMAL, Species: MOUSE, Strain/Sex: CD-1/FEMALE, Target Tissue: Type of Lesion: SKIN: PAPILLOMA, Dose [Carcinogen]: 20 NMOL IN 200 µL ACETONE ONCE","94%, 33%, 65%, not calculated and 100%, 58%, 42%, not calculated"
same,"tumour outcome (control, treated, inhibition, significance)","Carcinogen: 7,12-DIMETHYLBENZ[A]ANTHRACENE, 57-97-6, Dose [Inhibitor]: 0, 256 NMOL 15 D POST INITIATION DOSE FOLLOWED BY 256 PMOL 2/WK DURING WK 3-22 APPLIED 15 MIN PRIOR TO EACH PROMOTION DO, Route [Inhibitor]: DERMAL, Species: MOUSE, Strain/Sex: CD-1/FEMALE, Target Tissue: Type of Lesion: SKIN: PAPILLOMA, Dose [Carcinogen]: 20 NMOL IN 200 µL ACETONE ONCE","100%, 100%, 0%, not significant"
Nc1ncn([C@@H]2O[C@H](CO)[C@@H](O)[C@H]2O)c(=O)n1,"tumour outcome (control, treated, inhibition, significance)","Carcinogen: DIETHYLNITROSAMINE, 55-18-5, Dose [Inhibitor]: 0, 5 MG/KG INJECTED 4, 24, AND 48 HR AFTER EACH CARCINOGEN EXPOSURE (STUDY DURATION: 6 MO), Route [Inhibitor]: INTRAPERITONEAL, Species: RAT, Strain/Sex: BD6/MALE, Target Tissue: Type of Lesion: ESOPHAGUS: TUMOR, Dose [Carcinogen]: 80 MG/KG 1/WK FOR 5 WK","4/29 (14%), 3/27 (11%), 21%, not calculated"
same,"tumour outcome (control, treated, inhibition, significance)","Carcinogen: DIETHYLNITROSAMINE, 55-18-5, Dose [Inhibitor]: 0, 5 MG/KG INJECTED 4, 24, AND 48 HR AFTER EACH CARCINOGEN EXPOSURE (STUDY DURATION: 6 MO), Route [Inhibitor]: INTRAPERITONEAL, Species: RAT, Strain/Sex: BD6/MALE, Target Tissue: Type of Lesion: LIVER: TUMOR, Dose [Carcinogen]: 80 MG/KG 1/WK FOR 5 WK","15/29 (52%), 25/27 (93%), -79%, not calculated"
same,"tumour outcome (control, treated, inhibition, significance)","Carcinogen: DIETHYLNITROSAMINE, 55-18-5, Dose [Inhibitor]: 0, 10 MG/KG INJECTED 4, 24, AND 48 HR AFTER EACH CARCINOGEN EXPOSURE (STUDY DURATION: 6 MO), Route [Inhibitor]: INTRAPERITONEAL, Species: RAT, Strain/Sex: BD6/MALE, Target Tissue: Type of Lesion: ESOPHAGUS: TUMOR, Dose [Carcinogen]: 80 MG/KG 1/WK FOR 5 WK","4/29 (14%), 0/7 (0%), 100%, not calculated"
same,"tumour outcome (control, treated, inhibition, significance)","Carcinogen: DIETHYLNITROSAMINE, 55-18-5, Dose [Inhibitor]: 0, 10 MG/KG INJECTED 4, 24, AND 48 HR AFTER EACH CARCINOGEN EXPOSURE (STUDY DURATION: 6 MO), Route [Inhibitor]: INTRAPERITONEAL, Species: RAT, Strain/Sex: BD6/MALE, Target Tissue: Type of Lesion: LIVER: TUMOR, Dose [Carcinogen]: 80 MG/KG 1/WK FOR 5 WK","15/29 (52%), 6/7 (86%), -65%, not calculated"
CC(=O)NCCCCCCNC(C)=O,"tumour outcome (control, treated, inhibition, significance)","Carcinogen: 7,12-DIMETHYLBENZ[A]ANTHRACENE, 57-97-6, Dose [Inhibitor]: 0, 1% IN DRINKING WATER FOR DURATION OF STUDY (STUDY DURATION: 13 WK), Route [Inhibitor]: ORAL, Species: HAMSTER, Strain/Sex: SYRIAN/MALE, Target Tissue: Type of Lesion: CHEEK POUCH: TUMOR, Dose [Carcinogen]: 0.5% IN ACETONE/HEAVY MINERAL OIL (1:20) 2/WK FOR 11 WK, Promoter: NONE USED","13/13 (100%), 13/13 (100%), 0%, not significant"
same,"tumour outcome (control, treated, inhibition, significance)","Carcinogen: 7,12-DIMETHYLBENZ[A]ANTHRACENE, 57-97-6, Dose [Inhibitor]: 0, 500 MG/KG BW 3/WK FOR DURATION OF STUDY (STUDY DURATION: 13 WK), Route [Inhibitor]: INTRAPERITONEAL, Species: HAMSTER, Strain/Sex: SYRIAN/MALE, Target Tissue: Type of Lesion: CHEEK POUCH: TUMOR, Dose [Carcinogen]: 0.5% IN ACETONE/HEAVY MINERAL OIL (1:20) 2/WK FOR 11 WK, Promoter: NONE USED","13/13 (100%), 13/13 (100%), 0%, not significant"
same,"tumour outcome (control, treated, inhibition, significance)","Carcinogen: N-METHYL-N-NITROSOUREA [684-93-5], Dose [Inhibitor]: 1000 PPM IN DIET FOR 19 WK BEGINNING 1 WK PRIOR TO FIRST CARCINOGEN DOSE (STUDY DURATION: 19 WK), Route [Inhibitor]: ORAL, Species: RAT, Strain/Sex: SPRAGUE-DAWLEY/FEMALE, Target Tissue: Type of Lesion: MAMMARY GLAND: TUMOR, Dose [Carcinogen]: 40 MG/KG BW ONCE (STUDY DURATION: 19 WK), Promoter: NONE","18/20 (90%), 17/20 (85%), 6% not significant"
same,"tumour outcome (control, treated, inhibition, significance)","Carcinogen: N-METHYL-N-NITROSOUREA [684-93-5], Dose [Inhibitor]: 2000 PPM IN DIET FOR 19 WK BEGINNING 1 WK PRIOR TO FIRST CARCINOGEN DOSE (STUDY DURATION: 19 WK), Route [Inhibitor]: ORAL, Species: RAT, Strain/Sex: SPRAGUE-DAWLEY/FEMALE, Target Tissue: Type of Lesion: MAMMARY GLAND: TUMOR, Dose [Carcinogen]: 40 MG/KG BW ONCE (STUDY DURATION: 19 WK), Promoter: NONE","18/20 (90%), 17/20 (85%), 6%, not significant"
O=C(NC(Cc1cc(=O)[nH]c2ccccc12)C(=O)O)c1ccc(Cl)cc1 (centres undefined),"tumour outcome (control, treated, inhibition, significance)","Carcinogen: N-ETHYL-N'-NITRO-N-NITROSOGUANIDINE, 4245-77-6, Dose [Inhibitor]: 0, 20 MG/KG/D IN DIET FOR 16 WK (STUDY DURATION: 16 WK), Route [Inhibitor]: ORAL, Species: MOUSE, Strain/Sex: C57BL/MALE, Target Tissue: Type of Lesion: DUODENUM: TUMOR, Dose [Carcinogen]: 100 MG/L IN DRINKING WATER FOR 4 WK, Promoter: NONE USED","22/33 (67%), 18/33 (55%), 18%, not significant"
same,"tumour outcome (control, treated, inhibition, significance)","Carcinogen: N-ETHYL-N'-NITRO-N-NITROSOGUANIDINE, 4245-77-6, Dose [Inhibitor]: 0, 20 MG/KG/D IN DIET FOR DURATION OF STUDY (STUDY DURATION: 16 WK), Route [Inhibitor]: ORAL, Species: MOUSE, Strain/Sex: C57BL/MALE, Target Tissue: Type of Lesion: DUODENUM: TUMOR, Dose [Carcinogen]: 100 MG/L IN DRINKING WATER FOR 4 WK, Promoter: NONE","22/33 (67%), 18/31 (58%), 13%, not significant"
same,"tumour outcome (control, treated, inhibition, significance)","Carcinogen: N-ETHYL-N'-NITRO-N-NITROSOGUANIDINE, 4245-77-6, Dose [Inhibitor]: 0, 50 MG/KG/D IN DIET FOR 16 WK (STUDY DURATION: 16 WK), Route [Inhibitor]: ORAL, Species: MOUSE, Strain/Sex: C57BL/MALE, Target Tissue: Type of Lesion: DUODENUM: TUMOR, Dose [Carcinogen]: 100 MG/L IN DRINKING WATER FOR 4 WK, Promoter: NONE USED","22/33 (67%), 14/33 (42%), 37%, p<0.05"
same,"tumour outcome (control, treated, inhibition, significance)","Carcinogen: N-ETHYL-N'-NITRO-N-NITROSOGUANIDINE, 4245-77-6, Dose [Inhibitor]: 0, 50 MG/KG/D IN DIET FOR DURATION OF STUDY (STUDY DURATION: 16 WK), Route [Inhibitor]: ORAL, Species: MOUSE, Strain/Sex: C57BL/MALE, Target Tissue: Type of Lesion: DUODENUM: TUMOR, Dose [Carcinogen]: 100 MG/L IN DRINKING WATER FOR 4 WK, Promoter: NONE","22/33 (67%), 14/31 (45%), 33%, not significant"
same,"tumour outcome (control, treated, inhibition, significance)","Carcinogen: N-METHYL-N'-NITRO-N-NITROSOGUANIDINE, 70-25-7, Dose [Inhibitor]: 0, 20 MG/KG/D IN DIET FOR 34 WK BEGINNING 10 WK POST FIRST CARCINOGEN DOSE (STUDY DURATION: 44 WK), Route [Inhibitor]: ORAL, Species: RAT, Strain/Sex: WISTAR/MALE, Target Tissue: Type of Lesion: STOMACH: TUMOR, Dose [Carcinogen]: 80 MG/L IN DRINKING WATER FOR 28 WK, Promoter: NONE","10/13 (77%), 8/13 (62%), 19%, not significant"
